Laboratory results from ChEMBL document CHEMBL1146633, “Synthesis and antimalarial evaluation of new 1,4-bis(3-aminopropyl)piperazine derivatives” (Bioorg Med Chem Lett, 2003).

Assays:
Plasmodium falciparum = assay: Antimalarial activity against chloroquine-resistant Plasmodium falciparum FcB1; type: functional, organism-based
MRC5 [1] = assay: Relative inhibitory activity to cytotoxicity as selectivity index (CC50/IC50); type: functional
[2] = molecular target: T1, Histidine-rich protein PFHRP-II (Plasmodium falciparum) (UniProt P05227); assay: Inhibition of 1-monooleoyl glycerol (MOG) induced beta-hematin formation at 200 uM; type: functional
T1 sequence (whole entry): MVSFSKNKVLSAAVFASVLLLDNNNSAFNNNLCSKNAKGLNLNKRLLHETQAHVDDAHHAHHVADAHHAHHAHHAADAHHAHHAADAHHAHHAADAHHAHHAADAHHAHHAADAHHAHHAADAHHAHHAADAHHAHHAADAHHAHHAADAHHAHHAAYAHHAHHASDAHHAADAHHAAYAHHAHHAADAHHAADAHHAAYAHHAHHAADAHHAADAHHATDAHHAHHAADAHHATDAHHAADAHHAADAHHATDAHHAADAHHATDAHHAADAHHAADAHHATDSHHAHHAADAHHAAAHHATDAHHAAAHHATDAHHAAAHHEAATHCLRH

MRC5 [3] = assay: Cytotoxicity against human diploid embryonic lung cell line (MRC5 cells) using the colorimetric MTT assay; type: functional
[4] = molecular target: T1, Histidine-rich protein PFHRP-II (Plasmodium falciparum); assay: Vacuolar accumulation ratio (VAR) on beta-hematin inhibitory activity; type: functional

Structure (SMILES): CC(C)CN(CCCN1CCN(CCCNC(=O)c2ccc3ccccc3c2)CC1)CC(C)C
- IC50 (Plasmodium falciparum): 0.672 µM
- Selectivity index (MRC5 [1]): >65
- inhibition [2]: 54%
- CC50 (MRC5 [3]): 44 µM
- VAR [4]: 3300

Structure (SMILES): COc1ccc(C(=O)NCCCN2CCN(CCCN(CC(C)C)CC(C)C)CC2)cc1
- IC50 (Plasmodium falciparum): 4.43 µM
- CC50 (MRC5 [3]): 57.7 µM
- VAR [4]: 3100

Structure (SMILES): CC(C)CN(CCCN1CCN(CCCNCc2ccccc2)CC1)CC(C)C
- IC50 (Plasmodium falciparum): 0.454 µM
- Selectivity index (MRC5 [1]): 46
- CC50 (MRC5 [3]): 21 µM
- VAR [4]: 476000

Structure (SMILES): CC(C)CN(CCCN1CCN(CCCNc2ccnc3cc(Cl)ccc23)CC1)CC(C)C
- VAR [4]: 597000

Structure (SMILES): CC(C)CN(CCCN1CCN(CCCNc2nc3ccccc3[nH]2)CC1)CC(C)C
- IC50 (Plasmodium falciparum): 0.0873 µM
- Selectivity index (MRC5 [1]): 183
- CC50 (MRC5 [3]): 16 µM
- VAR [4]: 388000

Structure (SMILES): CC(C)CN(CCCN1CCN(CCCNc2nc3ccccc3o2)CC1)CC(C)C
- IC50 (Plasmodium falciparum): 1.33 µM
- Selectivity index (MRC5 [1]): >75
- CC50 (MRC5 [3]): > 100 µM
- VAR [4]: 298000

Structure (SMILES): CC(C)CN(CCCN1CCN(CCCNc2ccc([N+](=O)[O-])cn2)CC1)CC(C)C
- IC50 (Plasmodium falciparum): 0.758 µM
- Selectivity index (MRC5 [1]): 65
- inhibition [2]: 53%
- CC50 (MRC5 [3]): 49 µM
- VAR [4]: 3800

Structure (SMILES): CC(C)CN(CCCN1CCN(CCCNCc2ccc(Cl)cc2)CC1)CC(C)C
- IC50 (Plasmodium falciparum): 0.0406 µM
- CC50 (MRC5 [3]): 13 µM
- VAR [4]: 475000

Structure (SMILES): CC(C)CN(CCCN1CCN(CCCNc2[nH]cnc3ncnc2-3)CC1)CC(C)C
- IC50 (Plasmodium falciparum): 1.23 µM
- Selectivity index (MRC5 [1]): 67
- inhibition [2]: 53%
- CC50 (MRC5 [3]): 82 µM
- VAR [4]: 6200

Structure (SMILES): CC(C)CN(CCCN1CCN(CCCNCc2ccncc2)CC1)CC(C)C
- IC50 (Plasmodium falciparum): 0.842 µM
- Selectivity index (MRC5 [1]): 36
- CC50 (MRC5 [3]): 30 µM
- VAR [4]: 504000

Structure (SMILES): COc1ccc(CNCCCN2CCN(CCCN(CC(C)C)CC(C)C)CC2)cc1
- IC50 (Plasmodium falciparum): 0.111 µM
- CC50 (MRC5 [3]): 12 µM
- VAR [4]: 476000

Structure (SMILES): CC(C)CN(CCCN1CCN(CCCNC(=O)c2ccc(Cl)cc2)CC1)CC(C)C
- IC50 (Plasmodium falciparum): 5.27 µM
- Selectivity index (MRC5 [1]): 18
- inhibition [2]: 0%
- CC50 (MRC5 [3]): 93 µM
- VAR [4]: 3400

Structure (SMILES): CC(C)CN(CCCN1CCN(CCCNc2ccnc3ccccc23)CC1)CC(C)C
- IC50 (Plasmodium falciparum): 0.0189 µM
- Selectivity index (MRC5 [1]): 1587
- CC50 (MRC5 [3]): 30 µM
- VAR [4]: 882000

Structure (SMILES): CC(C)CN(CCCN1CCN(CCCNC(=O)c2ccncc2)CC1)CC(C)C
- IC50 (Plasmodium falciparum): 1.55 µM
- Selectivity index (MRC5 [1]): 65
- inhibition [2]: 0%
- CC50 (MRC5 [3]): > 100 µM
- VAR [4]: 3200

Structure (SMILES): CC(C)CN(CCCN1CCN(CCCNCc2ccc3ccccc3c2)CC1)CC(C)C
- IC50 (Plasmodium falciparum): 0.121 µM
- Selectivity index (MRC5 [1]): 54
- inhibition [2]: 98%
- CC50 (MRC5 [3]): 6.5 µM
- VAR [4]: 475000

Structure (SMILES): CCN(CC)CCCC(C)Nc1ccnc2cc(Cl)ccc12 (stereo unspecified) [CHLOROQUINE]
- CC50 (MRC5 [3]): 50 µM
- VAR [4]: 5310

Structure (SMILES): CC(C)CN(CCCN1CCN(CCCNc2cnccn2)CC1)CC(C)C
- IC50 (Plasmodium falciparum): 0.531 µM
- Selectivity index (MRC5 [1]): 151
- CC50 (MRC5 [3]): 80 µM
- VAR [4]: 3600
